The compounds below were run on A549-NF-κB-SEAP reporter cells (assay: Inhibition of NF-κB-induced inflammation: […] NINA Instant Assay, TNF-α stimulated SEAP reporter). Conditions: % inhibition classes.
Type: cell-based
Excerpt: For the determination of anti-inflammatory activity of the compounds the […]® NINA Instant Assay from Cell Culture Service GmBH was used. This assay is based on […] recombinant A549-NF-κB-SEAP reporter cells preceded in 96-well flat bottom plates. As the transfected reportergen for SEAP (secreted embryonic alkaline phosphatase) is under transcriptional control of a NF-κB-responsive element, the expression of this reporter is activated upon stimulation with TNF-α. SEAP secretion into the culture supernatant can be detected by the chemiluminescent substrate CSPD®. Test compounds that inhibit the NF-κB activation show reduced SEAP activity and reduced luminescent readout.
Following 18 h of reactivation at 37° C., 5% CO2 and 90% relative humidity, the cells were incubated with 0.01 up to 100 μM of test compound for 4.5 h before stimulation with 2 ng/ml TNF-α. After stimulation with TNF-α for 22 h endogenous phosphatases were inactivated and CSPD® substrate was supplied for 40 min. SEAP activity then was quantified by measuring luminescence as relative light units (RLU) using a Tecan Ultra reader. Each data point was recorded in quadruplicates and EC50 values were calculated via fitting function and the Microsoft Excel Solver.

Row | SMILES | Biological activity (inhibition in the NF-κB inflammation assay)
1 | O=C(O)c1ccc(C(=O)O)c(C(=O)N2CCC(c3nc(C(=O)N4CCN(c5cccc(C(F)(F)F)c5)CC4)cs3)CC2)c1 [compound 184] | + (“+” stands for 50-80% inhibition)
2 | N#Cc1ccc(CN2CCN(c3nc(C(=O)N4CCN(c5cccc(C(F)(F)F)c5)CC4)cs3)CC2)cc1 [compound 62] | +++ (“+++” stands for 90-100% inhibition)
3 | O=C(Cc1ccc(F)cc1)N1CCC(c2nc(C(=O)N3CCC(n4nnc5cc(C(F)(F)F)ccc54)CC3)cs2)CC1 [compound 181] | + (“+” stands for 50-80% inhibition)
4 | Nc1nc(NC(=O)c2csc(C3CCN(C(=O)c4ccccc4OC(F)(F)F)CC3)n2)n[nH]1 [compound 89] | + (“+” stands for 50-80% inhibition)
5 | O=C(Nc1ccccc1)N1CCC(c2nc(C(=O)N3CCN(c4cccc(C(F)(F)F)c4)CC3)cs2)CC1 [compound 73] | ++ (“++” means 80-90%)
6 | O=C(c1csc(C2CCN(S(=O)(=O)c3c(Cl)nc4sccn34)CC2)n1)N1CCN(c2cccc(C(F)(F)F)c2)CC1 [compound 197] | + (“+” stands for 50-80% inhibition)
7 | O=C(CCC1CCCC1)N1CCN(c2nc(C(=O)N3CCN(c4cccc(C(F)(F)F)c4)CC3)cs2)CC1 [compound 37] | +++ (“+++” stands for 90-100% inhibition)
8 | Cc1cc(NC(=O)N2CCC(c3nc(C(=O)N4CCN(c5cccc(C(F)(F)F)c5)CC4)cs3)CC2)c(C(F)(F)F)o1 [compound 137] | + (“+” stands for 50-80% inhibition)
9 | CC(C)(C)OC(=O)N1CCN(c2nc(C(=O)N3CCN(c4cccc(C(F)(F)F)c4)CC3)cs2)CC1 [compound 63] | ++ (“++” means 80-90%)
10 | CC1c2cc(O)c(O)cc2CCN1C(=O)c1csc(C2CCN(C(=O)Cc3ccc(F)cc3)CC2)n1 (stereo not shown) [compound 233] | + (“+” stands for 50-80% inhibition)
11 | O=C(c1csc(C2CCN(Cc3ccc(-c4ccccc4)cc3)CC2)n1)N1CCN(c2cccc(C(F)(F)F)c2)CC1 [compound 167] | + (“+” stands for 50-80% inhibition)
12 | Cc1sc(C2CCN(C(=O)c3ccccc3OC(F)(F)F)CC2)nc1CC(=O)N1CCN(c2cccc(Cl)c2)CC1 [compound 128] | +++ (“+++” stands for 90-100% inhibition)
13 | Cc1cc(=O)[nH]c(NC(=O)c2csc(C3CCN(C(=O)c4ccccc4OC(F)(F)F)CC3)n2)n1 [compound 86] | + (“+” stands for 50-80% inhibition)
14 | Cc1cc2nc(NC(=O)c3csc(C4CCN(C(=O)c5ccccc5OC(F)(F)F)CC4)n3)[nH]c2cc1C [compound 133] | +++ (“+++” stands for 90-100% inhibition)
15 | O=C(c1cc(C(F)(F)F)cc(C(F)(F)F)c1)N1CCN(c2nc(C(=O)N3CCN(c4cccc(C(F)(F)F)c4)CC3)cs2)CC1 [compound 59] | + (“+” stands for 50-80% inhibition)
16 | CC(C)NC(=O)N1CCC(c2nc(C(=O)N3CCN(c4cccc(C(F)(F)F)c4)CC3)cs2)CC1 [compound 78] | + (“+” stands for 50-80% inhibition)
17 | CC(C)(C)OC(=O)N1CCC(c2nc(C(=O)NC(=N)Nc3nc4ccccc4[nH]3)cs2)CC1 [compound 95] | +++ (“+++” stands for 90-100% inhibition)
18 | O=C(Nc1nnc(Cc2ccccc2)[nH]1)c1csc(C2CCN(C(=O)c3ccccc3OC(F)(F)F)CC2)n1 [compound 84] | + (“+” stands for 50-80% inhibition)
19 | CC(=O)Nc1ccc(S(=O)(=O)N2CCC(c3nc(C(=O)N4CCN(c5cccc(C(F)(F)F)c5)CC4)cs3)CC2)cc1 [compound 207] | + (“+” stands for 50-80% inhibition)
20 | O=C(c1csc(C2CCN(C(=O)c3cccs3)CC2)n1)N1CCN(c2cccc(C(F)(F)F)c2)CC1 [compound 212] | + (“+” stands for 50-80% inhibition)
21 | O=C(c1ccc(C(F)(F)F)c(F)c1)N1CCN(c2nc(C(=O)N3CCN(c4cccc(C(F)(F)F)c4)CC3)cs2)CC1 [compound 60] | +++ (“+++” stands for 90-100% inhibition)
22 | CN(C)c1nc(NC(=O)c2csc(C3CCN(C(=O)c4ccccc4OC(F)(F)F)CC3)n2)cc(=O)[nH]1 [compound 85] | + (“+” stands for 50-80% inhibition)
23 | O=C(Nc1nc(C(=O)N2CCN(c3cccc(C(F)(F)F)c3)CC2)cs1)c1ccccc1OC(F)(F)F [compound 32] | +++ (“+++” stands for 90-100% inhibition)

Row | SMILES | Biological activity (inhibition in the NF-κB inflammation assay)
24 | O=C(c1csc(C2CCN(c3ccc(C(F)(F)F)cc3)CC2)n1)N1CCN(c2cccc(C(F)(F)F)c2)CC1 [compound 155] | + (“+” stands for 50-80% inhibition)
25 | O=C(c1csc(C2CCN(c3ccc(OC(F)(F)F)cc3)CC2)n1)N1CCN(c2cccc(C(F)(F)F)c2)CC1 [compound 154] | + (“+” stands for 50-80% inhibition)
26 | COc1ccccc1N1CCN(C(=O)c2csc(C3CCN(C(=O)Cc4ccc(F)cc4)CC3)n2)CC1 [compound 229] | + (“+” stands for 50-80% inhibition)
27 | O=C(c1csc(C2CCN(C(=O)c3ccccc3OC(F)(F)F)CC2)n1)N1CCOC(c2ccccc2)C1 (stereo not shown) [compound 146] | + (“+” stands for 50-80% inhibition)
28 | O=C(Nc1nc(C(=O)N2CCN(c3cccc(C(F)(F)F)c3)CC2)cs1)Nc1ccccc1OC(F)(F)F [compound 55] | +++ (“+++” stands for 90-100% inhibition)
29 | O=C(c1csc(C2CCN(C(=O)c3ccccc3OC(F)(F)F)CC2)n1)N1CCN(c2cccc(C(F)(F)F)c2)CC1 [compound 223] | +++ (“+++” stands for 90-100% inhibition)
30 | O=C(c1csc(C2CCN(C(=O)c3cc4ccccc4s3)CC2)n1)N1CCN(c2cccc(C(F)(F)F)c2)CC1 [compound 213] | ++ (“++” means 80-90%)
31 | N=C(NC(=O)c1csc(C2CCNCC2)n1)Nc1nc2ccccc2[nH]1 [compound 94] | + (“+” stands for 50-80% inhibition)
32 | O=C(Cc1ccc(F)cc1)N1CCC(c2nc(C(=O)N3CCc4ccccc43)cs2)CC1 [compound 162] | + (“+” stands for 50-80% inhibition)
33 | O=C(c1csc(C2CCN(Cc3ccc(Br)cc3)CC2)n1)N1CCN(c2cccc(C(F)(F)F)c2)CC1 [compound 174] | + (“+” stands for 50-80% inhibition)
34 | O=C(c1csc(C2CCN(c3ccccc3)CC2)n1)N1CCN(c2cccc(C(F)(F)F)c2)CC1 [compound 119] | + (“+” stands for 50-80% inhibition)
35 | O=C(Nc1nc2ccccc2[nH]1)c1csc(C2CCN(C(=O)c3ccccc3OC(F)(F)F)CC2)n1 [compound 105] | + (“+” stands for 50-80% inhibition)
36 | O=C(c1csc(C2CCN(C(=O)c3cc(-c4ccc(Cl)cc4)oc3C(F)(F)F)CC2)n1)N1CCN(c2cccc(C(F)(F)F)c2)CC1 [compound 218] | +++ (“+++” stands for 90-100% inhibition)
37 | O=C(c1csc(N2CCN(Cc3ccccc3)CC2)n1)N1CCN(c2cccc(C(F)(F)F)c2)CC1 [compound 72] | +++ (“+++” stands for 90-100% inhibition)
38 | O=C(O)c1cccc(O)c1C(=O)N1CCC(c2nc(C(=O)N3CCN(c4cccc(C(F)(F)F)c4)CC3)cs2)CC1 [compound 186] | + (“+” stands for 50-80% inhibition)
39 | O=C(c1csc(C2CCN(c3ccc4c(c3)OCCO4)CC2)n1)N1CCN(c2cccc(C(F)(F)F)c2)CC1 [compound 157] | + (“+” stands for 50-80% inhibition)
40 | Cc1noc(C)c1S(=O)(=O)N1CCC(c2nc(C(=O)N3CCN(c4cccc(C(F)(F)F)c4)CC3)cs2)CC1 [compound 192] | + (“+” stands for 50-80% inhibition)
41 | N#Cc1ccc(C(=O)N2CCC(c3nc(C(=O)N4CCN(c5cccc(C(F)(F)F)c5)CC4)cs3)CC2)cc1 [compound 70] | ++ (“++” means 80-90%)
42 | N#Cc1ccc(C(=O)N2CCN(c3nc(C(=O)N4CCN(c5cccc(C(F)(F)F)c5)CC4)cs3)CC2)cc1 [compound 61] | +++ (“+++” stands for 90-100% inhibition)
43 | COc1cccc(CN2CCC(c3nc(C(=O)N4CCN(c5cccc(C(F)(F)F)c5)CC4)cs3)CC2)c1 [compound 173] | + (“+” stands for 50-80% inhibition)
44 | Cc1noc(C)c1C(=O)N1CCC(c2nc(C(=O)N3CCN(c4cccc(C(F)(F)F)c4)CC3)cs2)CC1 [compound 219] | + (“+” stands for 50-80% inhibition)
45 | COc1cc2c(cc1OC)CN(C(=O)c1csc(C3CCN(C(=O)Cc4ccc(F)cc4)CC3)n1)CC2 [compound 161] | + (“+” stands for 50-80% inhibition)

Same assay, conditions: inhibition classes

Row | SMILES | Biological activity (inhibition in the NF-κB inflammation assay)
46 | CNc1ccc(Cl)cc1C1c2ccccc2CCN1C(=O)c1csc(C2CCN(C(=O)Cc3ccc(F)cc3)CC2)n1 (stereo not shown) [compound 235] | + (“+” stands for 50-80% inhibition)

Source: patent US8106048B2, “Heterocyclic NF-κB inhibitors” (4SC AG, priority 2004, dated 2012)
